Like-named read-outs stand apart in the source and are kept apart here. Values belong to the compound of their own block, whether it stands above or below them.
Tests used:
TBK1 [1] = molecular target: T1, TBK1 (Homo sapiens (Human), UniProt Q9UHD2); assay: In vitro TBK1 degradation assay, MDA MB 231 cells (compounds 34-57), immunoblot; format: cell-based; conditions: 1 uM compound, 16 h, read-out: % TBK1 remaining at 1 uM Cmpd
Procedure: MDA MB 231 cells were purchased from ATCC and cultured in RPMI-1640 (Gibco), supplemented with 10% FBS (Gibco). PROTAC treatments were carried out in 24-well plates for 16 h. Cells were harvested, and lysed in RIPA buffer (50 mM Tris pH8, 150 mM NaCl, 1% Tx-100, 0.1% SDS, 0.5% Sodium Deoxycholate) supplemented with protease and phosphatase inhibitors. Lysates were clarified at 16,000 g for 10 minutes, and supernatants were separated by SDS-PAGE. Immunoblotting was performed using standard protocols. The antibodies used were TBK1 (Cell Signaling#3504) and GAPDH (Cell Signaling#5174).

[2] = molecular target: Von Hippel-Lindau (VHL) E3 ligase (Homo sapiens (Human), UniProt P40337); assay: VHL binding, FP assay; conditions: affinity of the VHL ligand component with side chain R2
Chain of Von Hippel-Lindau (VHL) E3 ligase (P40337 whole entry, looked up): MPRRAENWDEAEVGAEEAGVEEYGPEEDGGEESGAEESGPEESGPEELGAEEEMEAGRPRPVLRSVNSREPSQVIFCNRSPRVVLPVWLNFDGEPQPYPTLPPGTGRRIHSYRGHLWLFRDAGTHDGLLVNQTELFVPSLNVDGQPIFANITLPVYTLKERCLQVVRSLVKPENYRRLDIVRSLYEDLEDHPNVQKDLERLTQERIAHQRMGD
Chain of Von Hippel-Lindau (VHL) E3 ligase (Q15370 whole entry partner, looked up): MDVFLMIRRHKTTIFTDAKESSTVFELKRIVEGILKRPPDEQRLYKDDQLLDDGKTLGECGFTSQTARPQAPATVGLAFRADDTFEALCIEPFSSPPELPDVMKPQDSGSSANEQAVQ
Chain of Von Hippel-Lindau (VHL) E3 ligase (Q15369 whole entry partner, looked up): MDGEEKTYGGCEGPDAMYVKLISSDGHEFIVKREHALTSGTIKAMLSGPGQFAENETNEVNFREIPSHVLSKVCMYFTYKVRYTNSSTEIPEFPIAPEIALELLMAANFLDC

TBK1 [3] = molecular target: T1, TBK1; assay: In vitro TBK1 degradation assay, Panc02.13 cells (compounds 3-33), immunoblot; format: cell-based; conditions: TBK1 degradation, Panc02.13 cells, 16 h, mean of ≥ 2 determinations; for DC50: read-out: DC50 (concentration at which 50% degradation is observed)
Procedure: In vitro degradation assay protocol for compounds 3-33: Panc02.13 cells were purchased from ATCC and cultured in RPMI-1640 (Gibco), supplemented with 15% FBS (ATCC) and 10 Units/mL human recombinant insulin (Gibco). PROTAC treatments were carried out in 12-well plates for 16 h. TLR3 agonist Poly I:C (Invivogen; tlr1-pic) was added for the final 3 h. Cells were harvested, and lysed in RIPA buffer (50 mM Tris pH8, 150 mM NaCl, 1% Tx-100, 0.1% SDS, 0.5% Sodium Deoxycholate) supplemented with protease and phosphatase inhibitors. Lysates were clarified at 16,000 g for 10 minutes, and supernatants were separated by SDS-PAGE. Immunoblotting was performed using standard protocols. The antibodies used were TBK1 (Cell Signaling#3504), pIRF3 (abcam#ab76493), and GAPDH (Cell Signaling#5174).

TBK1 [4] = molecular target: T1, TBK1; assay: TBK1 binding affinity (Kd)

T1 sequence (Q9UHD2 whole entry): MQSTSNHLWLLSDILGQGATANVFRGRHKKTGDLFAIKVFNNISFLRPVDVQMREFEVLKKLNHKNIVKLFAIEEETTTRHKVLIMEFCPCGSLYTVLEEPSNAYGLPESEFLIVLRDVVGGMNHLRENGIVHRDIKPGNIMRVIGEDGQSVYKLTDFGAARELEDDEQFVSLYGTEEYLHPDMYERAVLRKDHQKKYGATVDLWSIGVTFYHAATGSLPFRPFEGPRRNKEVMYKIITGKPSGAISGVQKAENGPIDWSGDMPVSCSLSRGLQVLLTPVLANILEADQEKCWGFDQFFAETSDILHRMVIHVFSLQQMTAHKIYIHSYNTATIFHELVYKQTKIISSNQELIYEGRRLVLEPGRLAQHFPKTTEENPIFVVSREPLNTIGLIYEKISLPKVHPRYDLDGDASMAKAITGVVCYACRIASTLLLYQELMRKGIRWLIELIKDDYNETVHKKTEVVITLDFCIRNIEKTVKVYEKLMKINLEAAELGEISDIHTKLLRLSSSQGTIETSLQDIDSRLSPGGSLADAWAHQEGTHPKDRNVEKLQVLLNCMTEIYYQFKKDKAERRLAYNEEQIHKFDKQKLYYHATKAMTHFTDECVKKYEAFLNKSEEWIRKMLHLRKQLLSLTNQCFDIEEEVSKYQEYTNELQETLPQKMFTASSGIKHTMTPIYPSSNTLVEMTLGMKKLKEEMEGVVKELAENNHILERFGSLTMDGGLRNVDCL

Structure (SMILES): Cc1ncsc1-c1ccc(CNC(=O)[C@@H]2C[C@@H](O)CN2C(=O)[C@H](C)NC(=O)COCCCOCCCCOCCCOc2ccc(Nc3ncc(Br)c(NCCCN(C)C(=O)C4CCC4)n3)cc2)cc1 [Compound 30]
IC50 [2]: 23600 nM | Dmax (maximal degradation observed) (TBK1 [3]): 34% | DC50 (TBK1 [3]): > 1000 nM

Structure (SMILES): Cc1ncsc1-c1ccc(CNC(=O)[C@@H]2C[C@@H](O)CN2C(=O)[C@@H](NC(=O)COCCCOCCCCOCCCOc2cccc(Nc3ncc4c(n3)N(CCCN(C)C(=O)C3CCC3)CC4)c2)C(C)(C)C)cc1 [Compound 53]
remaining activity at 1 µM (TBK1 [1]): ≥ 81%

Structure (SMILES): CC[C@H](NC(=O)COCCCOCCCCOCCCOc1ccc(Nc2ncc(Br)c(NCCCN(C)C(=O)C3CCC3)n2)cc1)C(=O)N1C[C@H](O)C[C@H]1C(=O)NCc1ccc(-c2scnc2C)cc1 [Compound 31]
IC50 [2]: 70400 nM | Dmax (maximal degradation observed) (TBK1 [3]): 71% | Dmax (maximal degradation observed) (TBK1 [3]; listed as PROTAC 31): > 70% | DC50 (TBK1 [3]): 864 nM

Structure (SMILES): Cc1ncsc1-c1ccc(CNC(=O)[C@@H]2C[C@@H](O)CN2C(=O)[C@H](C(C)C)N2Cc3ccccc3C2=O)c(OCCOCCOCCOCCOCCOCCOc2ccc(Nc3ncc(Br)c(NCCCN(C)C(=O)C4CCC4)n3)cc2)c1 [Compound 37]
remaining activity at 1 µM (TBK1 [1]): ≥ 81%

Structure (SMILES): Cc1ncsc1-c1ccc(CNC(=O)[C@@H]2C[C@@H](O)CN2C(=O)[C@H](C(C)C)N2Cc3ccccc3C2=O)c(OCCOCCCOc2ccc(Nc3ncc(Br)c(NCCCN(C)C(=O)C4CCC4)n3)cc2)c1 [Compound 43]
remaining activity at 1 µM (TBK1 [1]): 41 to 80%

Structure (SMILES): CCC[C@H](NC(=O)COCCCOCCCCOCCCOc1ccc(Nc2ncc(Br)c(NCCCN(C)C(=O)C3CCC3)n2)cc1)C(=O)N1C[C@H](O)C[C@H]1C(=O)NCc1ccc(-c2scnc2C)cc1 [Compound 32]
IC50 [2]: 6200 nM | Dmax (maximal degradation observed) (TBK1 [3]): 75% | DC50 (TBK1 [3]): 288 nM

Structure (SMILES): Cc1ncsc1-c1ccc(CNC(=O)[C@@H]2C[C@@H](O)CN2C(=O)[C@H](C(C)C)N2Cc3ccccc3C2=O)c(OCCOCCOCCOCCOCCOc2ccc(Nc3ncc(Br)c(NCCCN(C)C(=O)C4CCC4)n3)cc2)c1 [Compound 38]
remaining activity at 1 µM (TBK1 [1]): ≥ 81%

Structure (SMILES): Cc1ncsc1-c1ccc(CNC(=O)[C@@H]2C[C@@H](O)CN2C(=O)[C@H](C(C)C)N2Cc3ccccc3C2=O)c(OCCOCCOCCCOCCOCCOc2ccc(Nc3ncc(Br)c(NCCCN(C)C(=O)C4CCC4)n3)cc2)c1 [Compound 42]
remaining activity at 1 µM (TBK1 [1]): 41 to 80%

Structure (SMILES): Cc1ncsc1-c1ccc(CNC(=O)[C@@H]2C[C@@H](O)CN2C(=O)[C@@H](NC(=O)COCCCOCCCCOCCCOc2cccc(Nc3ncc(C4CC4)c(NCCCN(C)C(=O)C4CCC4)n3)c2)C(C)(C)C)cc1 [Compound 51]
remaining activity at 1 µM (TBK1 [1]): ≥ 81%

Structure (SMILES): Cc1ncsc1-c1ccc(CNC(=O)[C@@H]2C[C@@H](O)CN2C(=O)[C@@H](NC(=O)COCCCOCCCCOCCCOc2ccc(Nc3ncc(C4CCC4)c(NCCCN(C)C(=O)C4CCC4)n3)cc2)C(C)(C)C)cc1 [Compound 22]
Kd (TBK1 [4]): 1040 ± 165 nM | Kd (TBK1 [4]; rounded value): 1000 nM | Dmax (maximal degradation observed) (TBK1 [3]): 70% | DC50 (TBK1 [3]): 544 nM

Structure (SMILES): Cc1ncsc1-c1ccc(CNC(=O)[C@@H]2C[C@@H](O)CN2C(=O)CNC(=O)COCCCOCCCCOCCCOc2ccc(Nc3ncc(Br)c(NCCCN(C)C(=O)C4CCC4)n3)cc2)cc1 [Compound 29]
IC50 [2]: 106000 nM | Dmax (maximal degradation observed) (TBK1 [3]): 0% | DC50 (TBK1 [3]): > 1000 nM

Structure (SMILES): Cc1ncsc1-c1ccc(CNC(=O)[C@@H]2C[C@@H](O)CN2C(=O)[C@@H](NC(=O)COCCCOCCCCOCCCOc2ccc(Nc3ncc(Br)c(NCCCN(C)C(=O)C4CCC4)n3)cc2)C(C)C)cc1 [Compound 33]
IC50 [2]: 1450 nM | Dmax (maximal degradation observed) (TBK1 [3]): 88% | DC50 (TBK1 [3]): 44 nM

Structure (SMILES): Cc1ncsc1-c1ccc(CNC(=O)[C@@H]2C[C@@H](O)CN2C(=O)[C@H](C(C)C)N2Cc3ccccc3C2=O)c(OCCCCOCCCCOc2ccc(Nc3ncc(Br)c(NCCCN(C)C(=O)C4CCC4)n3)cc2)c1 [Compound 40]
remaining activity at 1 µM (TBK1 [1]): ≥ 81%

Structure (SMILES): C=Cc1cnc(Nc2cccc(OCCCOCCCCOCCCOCC(=O)N[C@H](C(=O)N3C[C@H](O)C[C@H]3C(=O)NCc3ccc(-c4scnc4C)cc3)C(C)(C)C)c2)nc1NCCCN(C)C(=O)C1CCC1 [Compound 54]
remaining activity at 1 µM (TBK1 [1]): 41 to 80%

Structure (SMILES): CCc1cnc(Nc2cccc(OCCCOCCCCOCCCOCC(=O)N[C@H](C(=O)N3C[C@H](O)C[C@H]3C(=O)NCc3ccc(-c4scnc4C)cc3)C(C)(C)C)c2)nc1NCCCN(C)C(=O)C1CCC1 [Compound 52]
remaining activity at 1 µM (TBK1 [1]): ≥ 81%

Other lines, results leading:

remaining activity at 1 µM (TBK1 [1]): ≥ 81%
Structure (SMILES): Cc1ncsc1-c1ccc(CNC(=O)[C@@H]2C[C@@H](O)CN2C(=O)[C@H](C(C)C)N2Cc3ccccc3C2=O)c(OCCOCCOCCOc2ccc(Nc3ncc(Br)c(NCCCN(C)C(=O)C4CCC4)n3)cc2)c1 [Compound 35]

remaining activity at 1 µM (TBK1 [1]): 0 to 40%
Structure (SMILES): Cc1ncsc1-c1ccc(CNC(=O)[C@@H]2C[C@@H](O)CN2C(=O)[C@H](C(C)C)N2Cc3ccccc3C2=O)c(OCCCOCCCOCCOCCCOCCCOc2ccc(Nc3ncc(Br)c(NCCCN(C)C(=O)C4CCC4)n3)cc2)c1 [Compound 48]

remaining activity at 1 µM (TBK1 [1]): 41 to 80%
Structure (SMILES): Cc1ncsc1-c1ccc(CNC(=O)[C@@H]2C[C@@H](O)CN2C(=O)[C@H](C(C)C)N2Cc3ccccc3C2=O)c(OCCOCCOCCCCOCCOCCOc2ccc(Nc3ncc(Br)c(NCCCN(C)C(=O)C4CCC4)n3)cc2)c1 [Compound 45]

remaining activity at 1 µM (TBK1 [1]): 41 to 80%
Structure (SMILES): Cc1ncsc1-c1ccc(CNC(=O)[C@@H]2C[C@@H](O)CN2C(=O)[C@H](C(C)C)N2Cc3ccccc3C2=O)c(OCCCOCCCCOCCCOc2ccc(Nc3ncc(Br)c(NCCCN(C)C(=O)C4CCC4)n3)cc2)c1 [Compound 44]

remaining activity at 1 µM (TBK1 [1]): ≥ 81%
Structure (SMILES): Cc1ncsc1-c1ccc(CNC(=O)[C@@H]2C[C@@H](O)CN2C(=O)[C@H](C(C)C)N2Cc3ccccc3C2=O)c(OCCCCOc2ccc(Nc3ncc(Br)c(NCCCN(C)C(=O)C4CCC4)n3)cc2)c1 [Compound 39]

remaining activity at 1 µM (TBK1 [1]): ≥ 81%
Structure (SMILES): Cc1ncsc1-c1ccc(CNC(=O)[C@@H]2C[C@@H](O)CN2C(=O)[C@H](C(C)C)N2Cc3ccccc3C2=O)c(OCCOCCOCCOCCOc2ccc(Nc3ncc(Br)c(NCCCN(C)C(=O)C4CCC4)n3)cc2)c1 [Compound 36]

remaining activity at 1 µM (TBK1 [1]): ≥ 81%
Structure (SMILES): Cc1ncsc1-c1ccc(CNC(=O)[C@@H]2C[C@@H](O)CN2C(=O)[C@H](C(C)C)N2Cc3ccccc3C2=O)c(OCCCOCCCOc2ccc(Nc3ncc(Br)c(NCCCN(C)C(=O)C4CCC4)n3)cc2)c1 [Compound 41]

remaining activity at 1 µM (TBK1 [1]): 41 to 80%
Structure (SMILES): Cc1ncsc1-c1ccc(CNC(=O)[C@@H]2C[C@@H](O)CN2C(=O)[C@H](C(C)C)N2Cc3ccccc3C2=O)c(OCCOCCOc2ccc(Nc3ncc(Br)c(NCCCN(C)C(=O)C4CCC4)n3)cc2)c1 [Compound 34]

remaining activity at 1 µM (TBK1 [1]): 41 to 80%
Structure (SMILES): Cc1ncsc1-c1ccc(CNC(=O)[C@@H]2C[C@@H](O)CN2C(=O)[C@H](C(C)C)N2Cc3ccccc3C2=O)c(OCCCOCCCOCCOc2ccc(Nc3ncc(Br)c(NCCCN(C)C(=O)C4CCC4)n3)cc2)c1 [Compound 46]

remaining activity at 1 µM (TBK1 [1]): ≥ 81%
Structure (SMILES): Cc1cnc(Nc2cccc(OCCCOCCCCOCCCOCC(=O)N[C@H](C(=O)N3C[C@H](O)C[C@H]3C(=O)NCc3ccc(-c4scnc4C)cc3)C(C)(C)C)c2)nc1NCCCN(C)C(=O)C1CCC1 [Compound 50]
